Test results from the supplement of paper PMC6045584.
± gives the standard deviation of the averaged measurements.

How the values were obtained:
EVEROLIMUS = compound: CO[C@H]1C[C@@H]2CC[C@@H](C)[C@@](O)(O2)C(=O)C(=O)N2CCCC[C@H]2C(=O)O[C@H]([C@H](C)C[C@@H]2CC[C@@H](OCCO)[C@H](OC)C2)CC(=O)[C@H](C)/C=C(\C)[C@@H](O)[C@@H](OC)C(=O)[C@H](C)C[C@H](C)/C=C/C=C/C=C/1C [EVEROLIMUS]; assay: surviving fraction relative to DMSO-only wells; higher = less growth inhibition; settings: exposure time: 5 days
Method in brief: (§1)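 Surviving fraction is CellTiter-Glo luminescence divided by the median of wells given DMSO only. For this, log-phase tumour cell lines went into 384-well plates at 250–500 cells per well and, 24 hours later, into five days of continuous inhibitor exposure at 0.5, 1, 5, 10, 50, 100, 500 and 1000 nM. Lines were screened three times and retained only if replicate Pearson r >0.7 and median Z' >0.3.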

ETOPOSIDE = compound: COc1cc([C@@H]2c3cc4c(cc3[C@@H](O[C@@H]3O[C@@H]5CO[C@@H](C)O[C@H]5[C@H](O)[C@H]3O)[C@H]3COC(=O)[C@H]23)OCO4)cc(OC)c1O [ETOPOSIDE]; assay: as above; settings: exposure time: 5 days
Method in brief: as §1

| Test System | surviving fraction (EVEROLIMUS; 0.5 nM) | surviving fraction (EVEROLIMUS; 1 nM) | surviving fraction (EVEROLIMUS; 5 nM) | surviving fraction (EVEROLIMUS; 10 nM) | surviving fraction (EVEROLIMUS; 50 nM) | surviving fraction (EVEROLIMUS; 100 nM) | surviving fraction (EVEROLIMUS; 500 nM) | surviving fraction (EVEROLIMUS; 1000 nM) | surviving fraction (ETOPOSIDE; 0.5 nM) | surviving fraction (ETOPOSIDE; 1 nM) | surviving fraction (ETOPOSIDE; 5 nM) | surviving fraction (ETOPOSIDE; 10 nM) | surviving fraction (ETOPOSIDE; 50 nM) | surviving fraction (ETOPOSIDE; 100 nM) | surviving fraction (ETOPOSIDE; 500 nM) | surviving fraction (ETOPOSIDE; 1000 nM) |
| --- | --- | --- | --- | --- | --- | --- | --- | --- | --- | --- | --- | --- | --- | --- | --- | --- |
| SG43 HEADNECK | 1.18 ± 0.069 | 0.963 ± 0.053 | 0.943 ± 0.035 | 0.833 ± 0.13 | 0.874 ± 0.073 | 0.872 ± 0.13 | 0.908 ± 0.13 | 0.882 ± 0.071 | 1.02 ± 0.13 | 1.02 ± 0.21 | 0.933 ± 0.24 | 0.832 ± 0.23 | 0.876 ± 0.031 | 0.645 ± 0.11 | 0.894 ± 0.07 | 0.644 ± 0.064 |
| SIHA CERVIX | 0.822 ± 0.043 | 0.741 ± 0.04 | 0.64 ± 0.02 | 0.973 ± 0.61 | 0.605 ± 0.061 | 0.592 ± 0.049 | 0.498 ± 0.044 | 0.499 ± 0.008 | 1.07 ± 0.041 | 1.036 ± 0.0067 | 1.08 ± 0.12 | 1.11 ± 0.069 | 1.12 ± 0.049 | 1.16 ± 0.11 | 0.863 ± 0.058 | 0.684 ± 0.018 |
| SJSA1 BONE | 1.58 ± 0.029 | 1.72 ± 0.099 | 1.5 ± 0.24 | 1.63 ± 0.07 | 1.38 ± 0.023 | 1.7 ± 0.048 | 1.38 ± 0.26 | 1.73 ± 0.11 | 1.04 ± 0.022 | 1.04 ± 0.058 | 1.06 ± 0.036 | 1.01 ± 0.024 | 1.05 ± 0.03 | 1.02 ± 0.076 | 0.71 ± 0.0095 | 0.503 ± 0.0085 |
| SKBR3 BREAST | 0.615 ± 0.048 | 0.561 ± 0.009 | 0.414 ± 0.021 | 0.389 ± 0.015 | 0.37 ± 0.03 | 0.316 ± 0.016 | 0.312 ± 0.021 | 0.295 ± 0.018 | 1.07 ± 0.027 | 1.06 ± 0.099 | 1.1 ± 0.15 | 1.03 ± 0.12 | 1.12 ± 0.11 | 1.05 ± 0.084 | 0.66 ± 0.068 | 0.478 ± 0.12 |
| SNU475 LIVER | 0.489 ± 0.032 | 0.447 ± 0.028 | 0.41 ± 0.042 | 0.364 ± 0.018 | 0.381 ± 0.028 | 0.35 ± 0.01 | 0.303 ± 0.0065 | 0.343 ± 0.017 | 1.02 ± 0.05 | 0.999 ± 0.11 | 1 ± 0.039 | 1.03 ± 0.042 | 0.9937 ± 0.0049 | 0.957 ± 0.066 | 0.835 ± 0.042 | 0.571 ± 0.062 |
| SUM44 BREAST | 0.853 ± 0.24 | 0.723 ± 0.16 | 0.718 ± 0.12 | 0.713 ± 0.12 | 0.819 ± 0.25 | 0.804 ± 0.16 | 0.723 ± 0.17 | 0.711 ± 0.11 | 1.03 ± 0.026 | 1.05 ± 0.034 | 1.05 ± 0.046 | 1.06 ± 0.027 | 1.09 ± 0.043 | 1.11 ± 0.062 | 0.928 ± 0.082 | 0.913 ± 0.036 |
| SUM149 BREAST | 0.844 ± 0.035 | 0.671 ± 0.098 | 0.536 ± 0.068 | 0.523 ± 0.079 | 0.462 ± 0.039 | 0.411 ± 0.04 | 0.403 ± 0.023 | 0.335 ± 0.03 | 1.16 ± 0.04 | 1.17 ± 0.061 | 1.21 ± 0.048 | 1.13 ± 0.077 | 0.753 ± 0.044 | 0.563 ± 0.025 | 0.156 ± 0.0049 | 0.153 ± 0.0044 |
| SUM149.B1*.S BREAST | 1.11 ± 0.032 | 1.06 ± 0.034 | 1.04 ± 0.039 | 0.754 ± 0.082 | 0.696 ± 0.16 | 0.681 ± 0.17 | 0.698 ± 0.13 | 0.653 ± 0.13 | 1.1 ± 0.042 | 1.1 ± 0.053 | 1.11 ± 0.017 | 1.12 ± 0.07 | 1.08 ± 0.03 | 1.043 ± 0.0053 | 0.445 ± 0.0065 | 0.343 ± 0.013 |
| SUM159 BREAST | 1.08 ± 0.023 | 1.09 ± 0.024 | 0.921 ± 0.047 | 0.851 ± 0.04 | 0.852 ± 0.06 | 0.807 ± 0.014 | 0.808 ± 0.022 | 0.784 ± 0.021 | 1.14 ± 0.18 | 1.08 ± 0.08 | 1.1 ± 0.11 | 1.07 ± 0.058 | 1.06 ± 0.055 | 0.977 ± 0.079 | 0.364 ± 0.086 | 0.187 ± 0.027 |
| SYO1 SYNOVIAL | 0.8921 ± 0.0089 | 0.834 ± 0.011 | 0.661 ± 0.016 | 0.602 ± 0.036 | 0.508 ± 0.011 | 0.508 ± 0.0081 | 0.484 ± 0.036 | 0.45 ± 0.022 | 0.994 ± 0.042 | 0.997 ± 0.059 | 0.975 ± 0.027 | 0.933 ± 0.023 | 0.7 ± 0.044 | 0.505 ± 0.051 | 0.106 ± 0.024 | 0.0784 ± 0.014 |
| T47D BREAST | 0.892 ± 0.044 | 0.815 ± 0.047 | 0.686 ± 0.041 | 0.637 ± 0.021 | 0.646 ± 0.021 | 0.664 ± 0.038 | 0.6 ± 0.018 | 0.603 ± 0.022 | 1.06 ± 0.042 | 1.04 ± 0.03 | 1.07 ± 0.09 | 1.02 ± 0.021 | 1.03 ± 0.047 | 0.96 ± 0.068 | 0.525 ± 0.036 | 0.46 ± 0.023 |
| U2OS BONE | 0.954 ± 0.025 | 0.88 ± 0.039 | 0.7943 ± 0.0025 | 0.706 ± 0.039 | 0.678 ± 0.011 | 0.651 ± 0.029 | 0.633 ± 0.012 | 0.568 ± 0.03 | 1.03 ± 0.034 | 1.02 ± 0.062 | 1.05 ± 0.025 | 1.047 ± 0.009 | 1.022 ± 0.0045 | 0.867 ± 0.057 | 0.56 ± 0.026 | 0.546 ± 0.021 |
| VCAP PROSTATE | 1.04 ± 0.079 | 1.04 ± 0.052 | 0.941 ± 0.1 | 0.984 ± 0.032 | 0.891 ± 0.15 | 0.898 ± 0.027 | 0.758 ± 0.078 | 0.766 ± 0.056 | 1.19 ± 0.16 | 1.07 ± 0.032 | 1.14 ± 0.11 | 1.14 ± 0.088 | 1.07 ± 0.1 | 1.05 ± 0.092 | 0.541 ± 0.063 | 0.421 ± 0.049 |
| VP229 BREAST | 0.812 ± 0.056 | 0.664 ± 0.048 | 0.645 ± 0.086 | 0.566 ± 0.051 | 0.584 ± 0.01 | 0.541 ± 0.058 | 0.507 ± 0.061 | 0.511 ± 0.045 | 1.11 ± 0.042 | 1.09 ± 0.16 | 1.14 ± 0.24 | 1.19 ± 0.075 | 1.17 ± 0.062 | 1.13 ± 0.064 | 1.18 ± 0.14 | 1.15 ± 0.084 |
| YAMATO SYNOVIAL | 1.07 ± 0.084 | 1.06 ± 0.074 | 1.06 ± 0.02 | 0.633 ± 0.022 | 0.5 ± 0.021 | 0.454 ± 0.0076 | 0.401 ± 0.014 | 0.473 ± 0.03 | 1.3 ± 0.12 | 1.32 ± 0.063 | 1.19 ± 0.051 | 1.22 ± 0.18 | 1.26 ± 0.018 | 1.11 ± 0.096 | 0.636 ± 0.014 | 0.575 ± 0.031 |
| ZR751 BREAST | 0.964 ± 0.017 | 0.715 ± 0.031 | 0.502 ± 0.054 | 0.5 ± 0.068 | 0.337 ± 0.014 | 0.353 ± 0.015 | 0.322 ± 0.038 | 0.339 ± 0.0066 | 1.1 ± 0.04 | 1.1 ± 0.048 | 1.02 ± 0.067 | 1.05 ± 0.076 | 0.996 ± 0.022 | 0.968 ± 0.089 | 0.901 ± 0.078 | 0.7397 ± 0.007 |
